Experimental data: patent publication US12479847B2 (DANA-FARBER CANCER INSTITUTE, INC., priority 2019, dated 2025)

How the values were obtained:
Assay in all cases: KINOMEscan (ScanMAX) kinase profiling
Type in all cases: binding
panel of 468 kinases [1] = target: T1, panel of 468 kinases (Homo sapiens, UniProt Q56UN5); conditions: YSK4; 1 μM; read-out: % control
T1 construct: purchased KINOMEscan (ScanMAX) service
T1 sequence (Q56UN5 1-1328): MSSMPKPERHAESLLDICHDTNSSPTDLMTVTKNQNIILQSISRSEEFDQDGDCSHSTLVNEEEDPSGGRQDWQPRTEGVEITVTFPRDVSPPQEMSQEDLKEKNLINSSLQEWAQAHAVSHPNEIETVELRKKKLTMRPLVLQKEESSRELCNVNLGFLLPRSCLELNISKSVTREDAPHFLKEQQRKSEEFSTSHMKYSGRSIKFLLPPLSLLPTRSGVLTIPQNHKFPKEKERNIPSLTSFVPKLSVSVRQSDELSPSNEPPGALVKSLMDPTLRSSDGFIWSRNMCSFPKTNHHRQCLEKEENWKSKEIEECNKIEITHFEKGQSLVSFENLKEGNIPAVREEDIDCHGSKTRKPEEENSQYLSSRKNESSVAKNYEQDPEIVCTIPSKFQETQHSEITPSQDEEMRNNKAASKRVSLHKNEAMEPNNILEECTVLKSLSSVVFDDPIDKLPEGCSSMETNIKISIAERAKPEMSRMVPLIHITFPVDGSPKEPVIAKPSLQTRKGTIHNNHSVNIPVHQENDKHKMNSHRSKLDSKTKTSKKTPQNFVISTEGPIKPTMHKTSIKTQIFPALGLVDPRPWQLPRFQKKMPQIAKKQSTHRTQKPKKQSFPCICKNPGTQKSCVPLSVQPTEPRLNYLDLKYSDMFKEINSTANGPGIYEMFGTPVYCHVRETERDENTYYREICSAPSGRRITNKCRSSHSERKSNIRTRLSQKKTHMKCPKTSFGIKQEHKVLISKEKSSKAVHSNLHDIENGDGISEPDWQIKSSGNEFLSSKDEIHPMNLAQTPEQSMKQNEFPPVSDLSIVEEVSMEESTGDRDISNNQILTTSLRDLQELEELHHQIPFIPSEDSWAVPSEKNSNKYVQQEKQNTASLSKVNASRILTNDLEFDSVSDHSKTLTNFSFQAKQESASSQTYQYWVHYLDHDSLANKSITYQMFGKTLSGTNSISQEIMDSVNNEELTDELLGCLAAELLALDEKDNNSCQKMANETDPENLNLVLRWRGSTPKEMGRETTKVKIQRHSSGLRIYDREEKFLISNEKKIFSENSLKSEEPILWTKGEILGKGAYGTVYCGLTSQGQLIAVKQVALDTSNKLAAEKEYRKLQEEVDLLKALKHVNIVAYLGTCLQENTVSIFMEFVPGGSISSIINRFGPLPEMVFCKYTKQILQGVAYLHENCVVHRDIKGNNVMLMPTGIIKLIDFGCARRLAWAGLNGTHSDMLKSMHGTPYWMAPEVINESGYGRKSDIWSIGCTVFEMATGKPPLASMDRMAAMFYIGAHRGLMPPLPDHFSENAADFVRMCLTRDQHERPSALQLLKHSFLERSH

panel of 468 kinases [2] = target: T2, panel of 468 kinases (Homo sapiens, UniProt Q13705); conditions: ACVR2B; 1 μM; read-out: % control
T2 construct: purchased KINOMEscan (ScanMAX) service
T2 sequence (Q13705 19-512): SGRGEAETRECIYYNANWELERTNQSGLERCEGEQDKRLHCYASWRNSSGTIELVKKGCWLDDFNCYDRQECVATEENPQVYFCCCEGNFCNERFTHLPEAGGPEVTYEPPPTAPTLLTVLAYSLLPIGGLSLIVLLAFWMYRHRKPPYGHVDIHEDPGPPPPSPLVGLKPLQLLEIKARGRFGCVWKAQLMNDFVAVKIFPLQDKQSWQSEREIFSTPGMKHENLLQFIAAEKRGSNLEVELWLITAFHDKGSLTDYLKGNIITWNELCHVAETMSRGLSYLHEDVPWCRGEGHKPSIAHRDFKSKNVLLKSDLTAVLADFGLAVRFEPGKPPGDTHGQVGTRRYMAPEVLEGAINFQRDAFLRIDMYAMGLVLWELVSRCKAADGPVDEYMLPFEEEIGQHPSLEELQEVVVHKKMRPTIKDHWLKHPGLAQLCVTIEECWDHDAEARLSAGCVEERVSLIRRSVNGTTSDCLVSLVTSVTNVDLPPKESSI

panel of 468 kinases [3] = target: T3, panel of 468 kinases (Homo sapiens, UniProt Q16539); conditions: p38-alpha; 1 μM; read-out: % control
T3 construct: purchased KINOMEscan (ScanMAX) service
T3 sequence (Q16539 whole entry): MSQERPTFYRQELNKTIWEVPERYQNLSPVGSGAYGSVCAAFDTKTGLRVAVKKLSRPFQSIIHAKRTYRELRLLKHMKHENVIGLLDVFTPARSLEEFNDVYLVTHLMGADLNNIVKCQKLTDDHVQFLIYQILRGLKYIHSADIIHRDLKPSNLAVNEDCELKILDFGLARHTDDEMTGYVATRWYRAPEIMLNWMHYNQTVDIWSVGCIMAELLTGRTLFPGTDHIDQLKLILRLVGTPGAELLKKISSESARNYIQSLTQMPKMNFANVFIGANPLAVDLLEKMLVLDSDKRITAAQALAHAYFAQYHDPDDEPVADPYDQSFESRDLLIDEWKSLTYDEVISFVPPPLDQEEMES

panel of 468 kinases [4] = target: T4, panel of 468 kinases (Homo sapiens, UniProt Q9UEE5); conditions: DRAK1; 1 μM; read-out: % control
T4 construct: purchased KINOMEscan (ScanMAX) service
T4 sequence (Q9UEE5 1-414): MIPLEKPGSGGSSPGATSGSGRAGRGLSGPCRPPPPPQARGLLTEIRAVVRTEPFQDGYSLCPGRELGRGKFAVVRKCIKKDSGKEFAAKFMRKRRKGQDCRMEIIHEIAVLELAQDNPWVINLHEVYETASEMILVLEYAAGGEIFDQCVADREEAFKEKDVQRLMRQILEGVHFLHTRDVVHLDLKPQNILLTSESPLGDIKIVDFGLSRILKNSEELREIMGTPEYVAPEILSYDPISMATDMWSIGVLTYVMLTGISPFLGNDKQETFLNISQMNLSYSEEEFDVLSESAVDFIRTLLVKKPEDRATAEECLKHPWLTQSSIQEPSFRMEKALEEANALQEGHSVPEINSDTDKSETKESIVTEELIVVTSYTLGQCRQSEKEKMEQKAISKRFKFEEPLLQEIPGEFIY

panel of 468 kinases [5] = target: T5, panel of 468 kinases (Homo sapiens, UniProt P10721, L576P); conditions: KIT(L576P); 1 μM; read-out: % control
T5 construct: purchased KINOMEscan (ScanMAX) service
T5 sequence (P10721 26-976 L576P): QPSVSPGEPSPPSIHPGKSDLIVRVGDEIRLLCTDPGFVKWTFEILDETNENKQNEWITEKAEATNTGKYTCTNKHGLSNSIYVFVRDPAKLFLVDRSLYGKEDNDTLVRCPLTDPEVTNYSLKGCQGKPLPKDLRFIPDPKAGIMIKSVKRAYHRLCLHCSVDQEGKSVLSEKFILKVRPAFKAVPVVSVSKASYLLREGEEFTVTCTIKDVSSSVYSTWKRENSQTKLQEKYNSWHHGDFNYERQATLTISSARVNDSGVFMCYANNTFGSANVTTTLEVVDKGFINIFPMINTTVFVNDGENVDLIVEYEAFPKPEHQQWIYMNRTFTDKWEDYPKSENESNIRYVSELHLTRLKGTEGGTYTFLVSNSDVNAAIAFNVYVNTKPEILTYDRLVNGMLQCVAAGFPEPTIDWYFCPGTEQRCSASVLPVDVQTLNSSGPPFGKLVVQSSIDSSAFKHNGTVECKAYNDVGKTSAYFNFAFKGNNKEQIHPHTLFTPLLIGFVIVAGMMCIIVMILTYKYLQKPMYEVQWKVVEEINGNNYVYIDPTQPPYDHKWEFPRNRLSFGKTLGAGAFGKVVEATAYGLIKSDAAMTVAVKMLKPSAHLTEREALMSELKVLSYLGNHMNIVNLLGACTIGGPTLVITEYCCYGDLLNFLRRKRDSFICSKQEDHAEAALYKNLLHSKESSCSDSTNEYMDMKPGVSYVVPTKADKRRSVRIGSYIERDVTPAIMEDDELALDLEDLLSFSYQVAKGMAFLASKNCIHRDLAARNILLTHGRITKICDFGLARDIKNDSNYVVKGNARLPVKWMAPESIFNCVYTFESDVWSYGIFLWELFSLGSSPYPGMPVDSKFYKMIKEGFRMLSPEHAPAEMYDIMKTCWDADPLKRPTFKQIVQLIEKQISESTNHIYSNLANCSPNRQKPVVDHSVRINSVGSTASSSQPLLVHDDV

panel of 468 kinases [6] = target: T6, panel of 468 kinases (Homo sapiens, UniProt Q13043); conditions: MST1; 1 μM; read-out: % control
T6 construct: purchased KINOMEscan (ScanMAX) service
T6 sequence (Q13043 1-487): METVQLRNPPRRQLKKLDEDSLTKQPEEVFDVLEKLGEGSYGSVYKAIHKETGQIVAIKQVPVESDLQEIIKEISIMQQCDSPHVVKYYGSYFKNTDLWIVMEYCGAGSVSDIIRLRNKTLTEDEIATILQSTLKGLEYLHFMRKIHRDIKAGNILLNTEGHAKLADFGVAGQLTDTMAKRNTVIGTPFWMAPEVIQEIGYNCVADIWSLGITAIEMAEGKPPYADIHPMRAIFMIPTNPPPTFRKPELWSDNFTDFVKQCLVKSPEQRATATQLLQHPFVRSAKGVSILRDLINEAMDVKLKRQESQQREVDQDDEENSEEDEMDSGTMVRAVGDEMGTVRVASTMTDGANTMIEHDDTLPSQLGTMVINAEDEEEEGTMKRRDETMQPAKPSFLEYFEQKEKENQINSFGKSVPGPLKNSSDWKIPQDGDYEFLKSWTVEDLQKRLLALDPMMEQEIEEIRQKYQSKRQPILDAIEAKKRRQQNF

| Compound | remaining binding at 1 µM (panel of 468 kinases [1]) | remaining binding at 1 µM (panel of 468 kinases [2]) | remaining binding at 1 µM (panel of 468 kinases [3]) | remaining binding at 1 µM (panel of 468 kinases [4]) | remaining binding at 1 µM (panel of 468 kinases [5]) | remaining binding at 1 µM (panel of 468 kinases [6]) |
| --- | --- | --- | --- | --- | --- | --- |
| CNc1nc(Nc2ccc(S(=O)(=O)N3CCC(N4CCOCC4)CC3)cc2OC)nc2[nH]cc(Cl)c12 [Compound 12, 5-chloro-N2-(2-methoxy-4-((4-morpholinopiperidin-1-yl)sulfonyl)phenyl)-N4-methyl-7H-pyrrolo[2,3-d]pyrimidine-2,4-diamine] | 59% | 79% | 100% | 100% | 97% | 81% |
| CNc1nc(Nc2ccc(C(=O)N3CCC(N4CCOCC4)CC3)c3c2OCO3)nc2[nH]cc(Cl)c12 [Compound 75, (7-((5-chloro-4-(methylamino)-7H-pyrrolo[2,3-d]pyrimidin-2-yl)amino)benzo[d][1,3]dioxol-4-yl)(4-morpholinopiperidin-1-yl)methanone] | 0.25% | 95% | 100% | 2.8% | 36% | 100% |
| CNc1nc(Nc2ccc(P3(=O)CCN(C4CCOCC4)CC3)cc2OC)nc2[nH]cc(Cl)c12 [Compound 77, 4-(4-((5-chloro-4-(methylamino)-7H-pyrrolo[2,3-d]pyrimidin-2-yl)amino)-3-methoxyphenyl)-1-(tetrahydro-2H-pyran-4-yl)-1,4-azaphosphinane 4-oxide] | 4.2% | 73% | 100% | 95% | 100% | 100% |
